Reference: patent EP3428169A1, “6,6A-DIHYDRO FURO[3,2-B]FURAN-2-(5H)ONE DERIVATIVES, THEIR PREPARATION AND USE FOR TREATING TUMORS” (Universita' Della Calabria, priority 2017, dated 2019)

Legend:
MCF-7 cells = test: Cell viability assay: MTT test; type: cell-based, human; settings: for minimal effective concentration: Homo sapiens, MCF7, 72 h treatment, tested at 1, 5, 10, 20, 40 µM, p<0.05 vs untreated, read-out: concentration(s) giving significant reduction in the viability of MCF-7 cells
MCF-10A cells = test: Cell viability assay: MTT test, non-tumour cells; type: cell-based, human; settings: 72 h treatment; for reduction in cell viability of MCF-10A cells (in words): 1-40 µM; for concentration(s) giving inhibitory effect on viability of MCF-10A cells: tested at 1, 5, 10, 20, 40 µM
Protocol: (§1) All cell lines were obtained from the American Type Culture Collection (ATCC, Manassas, VA, USA). The human mammary adenocarcinoma cells (MCF-7) were cultured in DMEM-F12 (Dulbecco's Modified Eagle's Medium (DME) and Ham's F-12 Nutrient Mixture) containing 5% newborn calf serum (NCS), 1% glutamine, 1% penicillin/streptomycin (Sigma-Aldrich, Milan, Italy). The TNBC cells (MDA-MB-231 and MDA-MB-468) were cultured in DMEM-F12 containing 10% heat-inactivated foetal bovine serum (FBS), 1% glutamine, 1% penicillin/streptomycin (Sigma-Aldrich, Milan, Italy). The 3T3L- cells 1 (immortalised mouse fibroblasts) were cultured in DMEM (Dulbecco's Modified Eagle's medium) containing 10% heat-inactivated foetal bovine serum (FBS) and 1% penicillin/streptomycin (Sigma-Aldrich, Milan, Italy). The human mammary epithelial cells MCF-10A were maintained in DMEM-F12 with 5% horse serum (HS), 1% glutamine, 1% penicillin/streptomycin, 5 µg/ml of insulin, 0.25 mg/ml of hydrocortisone, 20 ng/ml of hEGF (human epidermal growth factor) and 0.05 mg/ml of cholera enterotoxin (Sigma-Aldrich, Milan, Italy).
(§2) All cell lines were maintained at 37°C in a 5% CO2 humidified atmosphere and periodically screened for mycoplasma contamination.
(§3) Cell viability was evaluated using a colorimetric assay which exploits the conversion, by the mitochondrial enzyme succinate dehydrogenase (SDH), of the bromide reagent of 3-(4,5-dimethylthiazol-2-il)-2,5-diphenyltetrazole (MTT) (Sigma-Aldrich, Milan, Italy) into crystals of a product called formazan (blue-coloured).
(§4) The cells were seeded in 48-well plates (25,000 cells/well), cultured for 72h in a complete medium before being treated for 72h with different doses (1, 5, 10, 20, 40 µM) of compounds A1, A2, A3, A4 and A5. At the end of the treatment the cells were incubated in darkness for 3h with 50 µl of a solution of MTT in PBS (2 mg/ml). The MTT solution was then carefully removed and the formazan salts that had formed were solubilised by adding 200 µl of DMSO (dimethyl sulphoxide) (Sigma-Aldrich, Milan, Italy), which imparts a pinkish colour to the solution. The coloured product was detected with the spectrophotometric method, by reading absorbance at the wavelength of 570 nm.
(§5) Cell viability was evaluated with the MTT colorimetric assay as described above.

MDA-MB-468 cells = test: Cell viability assay: MTT test; type: cell-based; settings: for minimal effective concentration: Homo sapiens, MDA-MB-468, 72 h treatment, tested at 1, 5, 10, 20, 40 µM, p<0.05 vs untreated, read-out: concentration(s) giving significant reduction in the viability of MDA-MB-468 cells
3T3-L1 cells = test: Cell viability assay: MTT test, non-tumour cells; type: cell-based, mouse; settings: 72 h treatment; for reduction in cell viability of 3T3-L1 cells (in words): 1-40 µM; for concentration(s) giving inhibitory effect on viability of 3T3-L1 cells: tested at 1, 5, 10, 20, 40 µM
Protocol: as §1, §2, §3, §4, §5

MDA-MB-231 cells = test: Cell viability assay: MTT test; type: cell-based; settings: for minimal effective concentration: Homo sapiens, MDA-MB-231, 72 h treatment, tested at 1, 5, 10, 20, 40 µM, p<0.05 vs untreated, read-out: concentration(s) giving significant reduction in the viability of MDA-MB-231 cells
parp-1 protein = test: Western blot analysis of cleavage/inactivation of parp-1; type: cell-based, human; settings: 20 µM, 48h
Protocol: The MCF-7, MDA-MB-231 and MDA-MB-468 cells were cultured in a complete medium for 72h in 60 mm plates (1 x 10^6 cells) before being treated for 48h with compound A4 (20 µM). After the treatment the cells were lysed in ice with RIPA (Radio-Immune Precipitation Assay) buffer (50 mM Tris HCI, pH 8.0, 150 mM NaCl, 1% NP-40, 0.5% sodium deoxycholate, 0.1% SDS, sodium dodecyl sulphate), containing protease inhibitors (1 mM phenylmethylsulphonyl fluoride (PMSF), 1mM sodium orthovanadate, 20 µM aprotinin, 20 µM leupeptin) for protein extraction. The lysates were maintained under ice for 10 minutes, then centrifuged for 10 minutes at 13000 rpm at 4°C. The protein content present in the supernatant was determined spectrophotometrically using the Bradford method. The proteins were separated, based on their molecular weight, in a sodium dodecyl sulphate-polyacrylamide gel (12%) (SDS-PAGE) and then transferred onto a nitrocellulose membrane. […]
In order to be able to visualise the interaction between the primary antibody and the protein of interest, the membranes were incubated for 1 hour at room temperature, after washing with TBS-T 1X three times in order to remove any traces of the primary antibody, with a specific secondary antibody conjugated to the enzyme horseradish peroxidase (HRP) and directed against the constant portion of the primary antibody. […] In order to normalise the result, the various membranes were hot stripped for 30 minutes at 50°C with a stripping buffer (62.5 mM Tris-HCI pH 6.7, 2% SDS, 100mM β-mercaptoethanoi) and re-incubated overnight with the antibody anti-glyceraldehyde 3-phosphate dehydrogenase (GAPDH) (1: 1000) (Santa Cruz Biotechnology, Santa Cruz, CA, USA) used as a control for the quantities of proteins loaded.

bcl-2 protein = test: Western blot analysis of expression of anti-apoptotic bcl-2; type: cell-based, human; settings: 20 µM, 48h
Protocol: (§6) A further confirmation of the ability of the compound of formula A4 to induce the death, by apoptosis, of MCF-7, MDA-MB231 and MDA-MB468 tumour cells was given by the evaluation, through western blot analysis, of its effect on the expression of the anti-apoptotic bcl-2 protein and on the appearance of cytochrome c in the cytosolic compartment.
(§7) The cells were cultured in a complete medium for 72 h in 60 mm plates (1 x 10^6 cells) before being treated for 48h with compound A4 (20 µM) in order to evaluate the protein expression of bcl-2 and the expression of the cytochrome c present in the cytosolic protein fraction.
For an analysis of the protein expression of bcl-2, after treatment the cells were lysed in ice with RIPA (Radio-Immune Precipitation Assay) buffer (50 mM Tris HCI, pH 8.0, 150 mM NaCl, 1% NP-40, 0.5% sodium deoxycholate, 0.1% SDS, sodium dodecyl sulphate), containing protease inhibitors (1 mM phenylmethylsulphonyl fluoride (PMSF), 1mM sodium orthovanadate, 20 µM aprotinin, 20 µM leupeptin) for protein extraction. The lysates were maintained under ice for 10 minutes, then centrifuged for 10 minutes at 13000 rpm at 4°C. The protein content present in the supernatant was determined spectrophotometrically using the Bradford method. The proteins were separated, based on their molecular weight, in a sodium dodecyl sulphate-polyacrylamide gel (12%) (SDS-PAGE) and then subjected to a western blot analysis as described above, using a specific primary anti-bcl-2 antibody (1:500) (Santa Cruz Biotechnology, Santa Cruz, CA, USA).

cytochrome c = test: Western blot analysis of cytochrome c in the cytosolic protein fraction; type: cell-based, human; settings: 20 µM, 48h
Protocol: as §6, §7
For the purpose of analysing the protein expression of the cytochrome c present in the cytosolic fraction, after treatment the cells were collected by centrifugation at 2500 rpm for 10 minutes at 4°C. The pellets were resuspended in 50 µl of sucrose buffer (250 mM sucrose, 10 mM Hepes, 10 mM KCl, 1.5 mM MgCl2, 1 mM EDTA, 1 mM EGTA) (Sigma-Aldrich, Milan, Italy) containing 20µM of aprotinin, 20 µM of leupeptin, 1mM of PMSF and 0.05% of digitonin (Sigma-Aldrich, Milan, Italy).
The cells were incubated for 20 minutes at 4°C and then centrifuged at 13000 rpm for 15 minutes at 4°C. The protein content present in the supernatant was determined spectrophotometrically using the Bradford method. The proteins were separated, based on their molecular weight, in a sodium dodecyl sulphate-polyacrylamide gel (15%) (SDS-PAGE) and then subjected to a western blot analysis as described above, using a specific primary anti-cytochrome c antibody (1:1000) (Santa Cruz Biotechnology, Santa Cruz, CA, USA).

## CC1(C)CC2(C)OC(=O)C(c3ccccc3)=C2O1 (stereo not shown) [Compound A1, 5,5,6a-trimethyl-3-phenyl-6,6a-dihydrofuro[3,2-b]furan-2(5H)-one]
MCF-7 cells
  minimal effective concentration: ≥ 10 µM
MCF-10A cells
  reduction in cell viability of MCF-10A cells (in words): more substantial
  concentration(s) giving inhibitory effect on viability of MCF-10A cells: ≥ 20 µM
MDA-MB-468 cells
  minimal effective concentration: ≥ 5 µM
3T3-L1 cells
  reduction in cell viability of 3T3-L1 cells (in words): more substantial
  concentration(s) giving inhibitory effect on viability of 3T3-L1 cells: 40 µM
MDA-MB-231 cells
  minimal effective concentration: ≥ 10 µM

## CC1(C)CC2(c3ccccc3)OC(=O)C=C2O1 (stereo not shown) [Compound A5, 5,5-dimethyl-6a-phenyl-6,6a-dihydrofuro[3,2-b]furan-2(5H)-one]
MCF-7 cells; 72 h treatment, 1-40 µM
  effect on the viability of MCF-7 cells (in words): modest but significant effect
MCF-7 cells
  minimal effective concentration: 5 to 40 µM
MCF-10A cells
  reduction in cell viability of MCF-10A cells (in words): not influenced
MDA-MB-468 cells; 72 h treatment, 1-40 µM
  effect on the viability of MDA-MB-468 cells (in words): slightly more effective
MDA-MB-468 cells
  minimal effective concentration: 10 to 40 µM
3T3-L1 cells
  reduction in cell viability of 3T3-L1 cells (in words): not influenced
MDA-MB-231 cells; 72 h treatment, 1-40 µM
  effect on the viability of MDA-MB-231 cells (in words): modest but significant effect
MDA-MB-231 cells
  minimal effective concentration: 20 to 40 µM

## CC12CCOC1=C([Si](C)(C)C)C(=O)O2 (stereo not shown) [Compound A3, 6a-methyl-3-(trimethylsilyl)-6,6a-dihydrofuro[3,2-b]furan-2(5H)-one]
MCF-7 cells
  minimal effective concentration: ≥ 10 µM
MCF-10A cells
  reduction in cell viability of MCF-10A cells (in words): more substantial
  concentration(s) giving inhibitory effect on viability of MCF-10A cells: ≥ 10 µM
MDA-MB-468 cells
  minimal effective concentration: ≥ 5 µM
3T3-L1 cells
  reduction in cell viability of 3T3-L1 cells (in words): more substantial
  concentration(s) giving inhibitory effect on viability of 3T3-L1 cells: 40 µM
MDA-MB-231 cells
  minimal effective concentration: ≥ 5 µM

## CC1(C)CC2(c3ccccc3)OC(=O)C([Si](C)(C)C)=C2O1 (stereo not shown) [Compound A4, 5,5-dimethyl-6a-phenyl-3-(trimethylsilyl)-6,6a-dihydrofuro[3,2-b]furan-2(5H)-one]
MCF-7 cells
  minimal effective concentration: 1 to 40 µM
parp-1 protein; MCF-7 cells
  cleavage of the parp-1 protein: the cleaved form of the parp-1 protein may be seen
parp-1 protein; MDA-MB-231 cells
  cleavage of the parp-1 protein: the cleaved form of the parp-1 protein may be seen
parp-1 protein; MDA-MB-468 cells
  cleavage of the parp-1 protein: the cleaved form of the parp-1 protein may be seen
MCF-10A cells
  reduction in cell viability of MCF-10A cells (in words): not influenced
MDA-MB-468 cells
  minimal effective concentration: 10 to 40 µM
3T3-L1 cells
  reduction in cell viability of 3T3-L1 cells (in words): not influenced
bcl-2 protein; MCF-7 cells
  expression of bcl-2: decreasing the expression of bcl-2
bcl-2 protein; MDA-MB-231 cells
  expression of bcl-2: decreasing the expression of bcl-2
bcl-2 protein; MDA-MB-468 cells
  expression of bcl-2: decreasing the expression of bcl-2
MDA-MB-231 cells
  minimal effective concentration: 10 to 40 µM
Cytochrome c; MCF-7 cells
  level of cytochrome c in the cytosolic fraction: increased to a significant degree
Cytochrome c; MDA-MB-231 cells
  level of cytochrome c in the cytosolic fraction: increased to a significant degree
Cytochrome c; MDA-MB-468 cells
  level of cytochrome c in the cytosolic fraction: increased to a significant degree

## CC1(C)CC2(C)OC(=O)C([Si](C)(C)C)=C2O1 (stereo not shown) [Compound A2, 5,5,6a-trimethyl-3-(trimethylsilyl)-6,6a-dihydrofuro[3,2-b]furan-2(5H)-one]
MCF-7 cells
  minimal effective concentration: ≥ 1 µM
MCF-10A cells
  reduction in cell viability of MCF-10A cells (in words): modest
  concentration(s) giving inhibitory effect on viability of MCF-10A cells: ≥ 5 µM
MDA-MB-468 cells
  minimal effective concentration: ≥ 1 µM
3T3-L1 cells
  reduction in cell viability of 3T3-L1 cells (in words): modest
  concentration(s) giving inhibitory effect on viability of 3T3-L1 cells: ≥ 20 µM
MDA-MB-231 cells
  minimal effective concentration: ≥ 1 µM
